Drawing on patent publication US8759537B2, “3H-imidazo [4, 5-C] pyridine-6-carboxamides as anti-inflammatory agents” (Boehringer Ingelheim International GmbH, priority 2010, dated 2014), this text covers IC50 for 29 compounds.

Assay [1] concerns the target T1, mPGES-1 (Homo sapiens (Human), UniProt O14684). As to the kind of experiment: mPGES-1 enzyme assay (HTRF detection of PGE2). The conditions noted are these: recombinant human mPGES-1 microsomes, PGH2 2 μM; read-out: mPGES-1 inhibitory effect in the enzyme assay, IC50. In kind it is biochemical. Here is the method:
Microsomes from Rosetta E. coli bacteria expressing recombinant human mPGES-1 can be derived as described below:
Inoculate 5 ml LB with Ampicilin (50 μg/ml) and Chloramphenicol (34 μg/ml) with bacteria from freeze culture. Incubate 8 h at 37° C. with 200 rpm. Thereafter, inoculate 500-1000 ml LB containing Amp and Chloro with the 5 ml on culture and grow to OD640 of 0.8-1.0. Chill the culture to +4° C. before induction. Induce the culture with IPTG at a final concentration of 400 μM. Express the protein at room temp 18-23° C. with 200 rpm shaking over night.
The following steps can be performed on the following day: • 1. Spin down the cells in 250 ml centrifuge flasks for 15 min at 7000 rpm (Beckmann Coulte Avanti J-E centrifuge) • 2. Dissolve the pellet from 250 ml culture in 12.5 ml homogenization buffer • 3. (15 mM Tris-HCL pH8, 1 mM EDTA pH8, […], 2.5 mM GSH, 1 Tablet Protease inhibitor per 50 ml buffer) • 4. […] Add 2.5 ml MgCl2 (100 mM) and DNase 12.5 μl (0.8 mg/ml) and incubate on ice for 30 min • 6. Spin down the bacteria debris and save the supernatant, 7000 rpm for 15 min • 7. Isolate the protein containing membranes in the supernatant by ultracentrifugation 120000×g for 2 hour at 4° C. (Sorvall T880 rotor). • 8. Discard the supernatant and dissolve the pellet in 20 mM Potassium phosphate buffer pH7.4 (KH2PO4 and K2HPO4) buffer by sonication (5×10 s, 30% of a 50 W sonifier) and aliquot the enzyme and store aliquots at −80° C.
Before each experiment is performed an aliquot of the enzyme is thawed and it can then be dissolved in 0.1 M Potassium phosphate buffer pH7.4 (KH2PO4 and K2HPO4) buffer containing 2.5 mM GSH.
The aim of this assay is to determine the affinity of a test compound for the mPGES-1 enzyme.
47 μl of recombinant human mPGES-1 (˜0.5 μg protein/well) containing microsomal suspension in a buffer containing GSH, (2.5 mmol/L L-Glutathione reduced, dissolved in 0.1 mol/L Phosphat Buffer pH 7.4) is dispensed in a 384-well plate and thereafter 1 μl of the test compound(s) is/are added and incubated for 25 minutes at room temperature. The enzyme reaction is started by the addition of 2 ul PGH2 (final conc. 2 μM) dissolved in water-free Diglyme. After 60 seconds the reaction is terminated by addition of a stop solution containing FeCl2 (10 μL 0.074 mol/l FeCl2). The samples are diluted between 1:25 in PBS (Phosphate Buffered Saline). 10 μl of the diluted samples are transferred to 384-well low volume plate. In order to quantify the amount of PGE2 that has been formed, a homogenous time resolved fluorescent (HTRF) detecting of PGE2 has been performed using a commercially available kit from Cisbio according to the manufactures recommendation. […] Briefly, the diluted samples are mixed with 5 μl PGE2-d2 conjungate and 5 μl anti-PGE2 cryptate conjungate. After an incubation period of the plates over night, the fluorescence is measured by the use of an appropriate microplate reader.
The quantification plate contains also wells with different concentrations of PGE2 as calibration curve for the calculation of the PGE2 concentrations from the HTRF ratio values.
From all mPGES enzyme assay the background is subtracted and the IC50 is calculated over a nonlinear regression with conventional software.

In assay [2] the target is T1, mPGES-1. Put plainly: A549 cell-based assay (PGE2 formation, IL-1β stimulated, 50% human serum). The conditions noted are these: A549 cells, IL-1β 5 ng/ml, read-out: mPGES-1 inhibitory effect in the cell assay, IC50. As to the method: Although the enzymatic assay is a high throughput assay the disadvantage is that it uses a recombinant protein which is not in its natural environment. Accordingly a cellular assay was established in which a cell line of human origin (A549) expressing the mPGES-1 protein was used. In addition in order to mimic the situation in humans in which compounds can be bound to plasma proteins 50% human serum is added in the assay.
Cells were detached using Trypsin-EDTA. A549 cells were seeded in a 384-well collagene plate at a density of 7000 cells/well (50 μl) in F-12 medium containing 1% Penicillin-Streptomycin and 50% human serum. The cells were allowed to attach for 3-4 h. […] The total volume is 100 μl.
Concentrations of PGE2 in the cell free medium (10 μl) were measured using a commercially available HTRF kit from Cisbio (as described above). The PGE2 formation in the absence of test compound was taken as 100%.
IC50 values were derived from at 6-8 point titrations using conventional software.

The structures appear in SMILES notation.

T1 sequence (O14684 whole entry): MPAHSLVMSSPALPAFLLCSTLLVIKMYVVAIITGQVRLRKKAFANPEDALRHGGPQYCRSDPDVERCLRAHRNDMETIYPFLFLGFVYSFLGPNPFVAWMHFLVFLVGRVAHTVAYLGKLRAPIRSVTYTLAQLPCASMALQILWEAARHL

As a reminder, the IC50 is the point on the concentration scale where inhibition reaches its midpoint. Consider `Cn1c(Nc2c(F)ccc(CNC(=O)C(C)(C)C)c2F)nc2cc(C(=O)Nc3ccc(Br)cc3)c(F)cc21` [Example 9], for which the results for the IC50 at mPGES-1 [1] and at mPGES-1 [2] were 4 nM and 79 nM, respectively.
For `Cn1c(Nc2c(F)ccc(CNC(=O)C(C)(C)C)c2F)nc2cc(C(=O)N[C@H]3CC[C@H](C(F)(F)F)CC3)c(F)cc21` [Example 10] the same measures were 7 nM and 4 nM.
`CC(C)(C)C(=O)NCc1ccc(Cl)c(Nc2nc3cc(C(=O)N[C@H]4CC[C@H](C(F)(F)F)CC4)c(F)cc3[nH]2)c1Cl` [Example 12, N-(trans-4-Trifluoromethyl-cyclohex-1-yl)-2-{2,6-dichloro-3-[(2,2-dimethyl-propionylamino)-methyl]-phenylamino}-6-fluoro-1H-benzimidazole-5-carboxylic acid amide]: the figures for the IC50 on mPGES-1 [1] and at mPGES-1 [2] were 4 nM and 7 nM, respectively.
The corresponding values for `Cn1c(Nc2c(Cl)ccc(CNC(=O)OC(C)(C)C)c2Cl)nc2cc(C(=O)N[C@H]3CC[C@H](C(F)(F)F)CC3)c(OCC(F)F)cc21` [Example 13, N-(trans-4-Trifluoromethyl-cyclohex-1-yl)-2-{2,6-dichloro-3-[(tert-butoxy-carbonylamino)-methyl]-phenylamino}-6-(2,2-difluoroethoxy)-1-methyl-1H-benzimidazole-5-carboxylic acid amide] are 3 nM and 28 nM.
The corresponding values for `Cc1ccc(CNC(=O)C(C)(C)C)c(C)c1Nc1nc2cc(C(=O)N[C@H]3CC[C@H](C(F)(F)F)CC3)c(OCC(F)F)cc2n1C` [Example 14, N-(trans-4-Trifluoromethyl-cyclohex-1-yl)-2-{2,6-dimethyl-3-[(2,2-dimethyl-propionylamino)-methyl]-phenylamino}-6-(2,2-difluoroethoxy)-1-methyl-1H-benzimidazole-5-carboxylic acid amide] are 1 nM and 5 nM.
For `Cn1c(Nc2c(Cl)ccc(CNC(=O)OC(C)(C)C)c2Cl)nc2cc(C(=O)Nc3ccc(F)c(Cl)c3)c(OCC(F)F)cc21` [Example 15], the 50% inhibitory concentration (IC50) at mPGES-1 [1] came to 3 nM; on mPGES-1 [2], 11 nM.
On to `Cn1c(Nc2c(Cl)ccc(CNC(=O)OC(C)(C)C)c2Cl)nc2cc(C(=O)NCC(F)(F)F)c(OCC(F)F)cc21` [Example 16], for which the values for the IC50 on mPGES-1 [1] and at mPGES-1 [2] were 5 nM and 106 nM, respectively.
For `Cn1c(Nc2c(Cl)ccc(CNC(=O)C(C)(C)C)c2Cl)nc2cc(C(=O)Nc3cccc(Cl)c3)c(F)cc21` [Example 18] the same measures were 1 nM and 4 nM.
The corresponding values for `Cn1c(Nc2c(Cl)ccc(CNC(=O)C(C)(C)C)c2Cl)nc2cc(C(=O)Nc3ccc(Cl)c(F)c3)c(F)cc21` [Example 19] are 1 nM and 2 nM.
The corresponding values for `Cn1c(Nc2c(Cl)ccc(CNC(=O)C(C)(C)C)c2Cl)nc2cc(C(=O)NC3CC(F)(F)C3)c(F)cc21` [Example 20] are 3 nM and 14 nM.
Consider `Cn1c(Nc2c(Cl)ccc(CNC(=O)C(C)(C)C)c2Cl)nc2cc(C(=O)NCC(F)(F)F)c(F)cc21` [Example 21], for which the half-inhibitory concentration (IC50) worked out at 3 nM on mPGES-1 [1] and 36 nM at mPGES-1 [2].
For `Cn1c(Nc2c(Cl)ccc(CNC(=O)C(C)(C)C)c2Cl)nc2cc(C(=O)Nc3cc(Cl)ccc3Cl)c(F)cc21` [Example 22] the same measures were 2 nM and 1 nM.
Consider `Cn1c(Nc2c(Cl)ccc(CNC(=O)C(C)(C)C)c2Cl)nc2cc(C(=O)Nc3cc(F)cc(Cl)c3)c(F)cc21` [Example 23], for which the IC50 on mPGES-1 [1] was 1 nM; on mPGES-1 [2], below 1 nM.
As for `Cn1c(Nc2c(F)ccc(CNC(=O)C(C)(C)C)c2F)nc2cc(C(=O)N[C@H]3CC[C@H](C(F)(F)F)CC3)c(OCC(F)F)cc21` [Example 25], the IC50 on mPGES-1 [1] came out at 2 nM; at mPGES-1 [2] it was 9 nM.
`Cn1c(Nc2c(F)ccc(CNC(=O)C(C)(C)C)c2F)nc2cc(C(=O)Nc3ccc(F)c(Cl)c3)c(OCC(F)F)cc21` [Example 26]: the values for the half-inhibitory concentration (IC50) at mPGES-1 [1] and at mPGES-1 [2] were 2 nM and 11 nM, respectively.
For `Cn1c(Nc2c(F)ccc(CNC(=O)C(C)(C)C)c2F)nc2cc(C(=O)NCC(F)(F)F)c(OCC(F)F)cc21` [Example 27] the same measures were 4 nM and 124 nM.
For `Cn1c(Nc2c(Cl)ccc(CNC(=O)C(C)(C)C)c2Cl)nc2cc(C(=O)Nc3ccc(F)c(Cl)c3)c(OCC(F)F)cc21` [Example 29] the same measures were 4 nM and below 1 nM.
The corresponding values for `Cn1c(Nc2c(Cl)ccc(CNC(=O)C(C)(C)C)c2Cl)nc2cc(C(=O)Nc3cccc(Cl)c3)c(OCC(F)F)cc21` [Example 30] are 4 nM and below 1 nM.
In the case of `Cn1c(Nc2c(Cl)ccc(CNC(=O)C(C)(C)C)c2Cl)nc2cc(C(=O)Nc3cccc(F)c3)c(OCC(F)F)cc21` [Example 31], the IC50 was found to be 3 nM at mPGES-1 [1] and 1 nM at mPGES-1 [2].
`Cn1c(Nc2c(Cl)ccc(CNC(=O)C(C)(C)C)c2Cl)nc2cc(C(=O)NC3CCC3)c(OCC(F)F)cc21` [Example 32]: the values for the IC50 at mPGES-1 [1] and at mPGES-1 [2] were 3 nM and 1 nM, respectively.
For `Cn1c(Nc2c(Cl)ccc(CNC(=O)C(C)(C)C)c2Cl)nc2cc(C(=O)Nc3nc4ccc(Cl)cc4s3)c(OCC(F)F)cc21` [Example 34] the same measures were 4 nM and 1 nM.
The corresponding values for `Cn1c(Nc2c(Cl)ccc(CNC(=O)C(C)(C)C)c2Cl)nc2cc(C(=O)NCc3ccccc3C(F)(F)F)c(OCC(F)F)cc21` [Example 35] are 4 nM and below 1 nM.
Turning to `Cn1c(Nc2c(Cl)ccc(CNC(=O)C(C)(C)C)c2Cl)nc2cc(C(=O)NCc3ccc(F)cc3C(F)(F)F)c(OCC(F)F)cc21` [Example 36], the 50% inhibitory concentration (IC50) at mPGES-1 [1] was 4 nM; at mPGES-1 [2], below 1 nM.
Take `Cn1c(Nc2c(Cl)ccc(CNC(=O)C(C)(C)C)c2Cl)nc2cc(C(=O)NC[C@@H]3CCCO3)c(OCC(F)F)cc21` [Example 37]: the 50% inhibitory concentration (IC50) was 5 nM at mPGES-1 [1] and 9 nM at mPGES-1 [2].
For `Cn1c(Nc2c(Cl)ccc(CNC(=O)C(C)(C)C)c2Cl)nc2cc(C(=O)NCC(F)(F)C(F)(F)F)c(OCC(F)F)cc21` [Example 38] the same measures were 3 nM and below 1 nM.
For `CC(NC(=O)c1cc2nc(Nc3c(Cl)ccc(CNC(=O)C(C)(C)C)c3Cl)n(C)c2cc1OCC(F)F)C(F)(F)F` (stereo not shown) [Example 39] the same measures were 4 nM and below 1 nM.
The corresponding values for `Cn1c(Nc2c(Cl)ccc(CNC(=O)C(C)(C)C)c2Cl)nc2cc(C(=O)Nc3cc(F)cc(Cl)c3)c(OCC(F)F)cc21` [Example 40] are 4 nM and below 1 nM.
As to `Cn1c(Nc2c(Cl)ccc(CNC(=O)C(C)(C)C)c2Cl)nc2cc(C(=O)Nc3ncc(Cl)s3)c(OCC(F)F)cc21` [Example 41], the IC50 at mPGES-1 [1] is 4 nM; on mPGES-1 [2] it was 1 nM.
For `Cn1c(Nc2c(Cl)ccc(CNC(=O)C(C)(C)C)c2Cl)nc2cc(C(=O)NCc3ncccc3C(F)(F)F)c(OCC(F)F)cc21` [Example 42] the same measures were 4 nM and below 1 nM.
